Laboratory results taken from publication PMC6458995, “MAP4K4 Inhibition Promotes Survival of Human Stem Cell-Derived Cardiomyocytes and Reduces Infarct Size In Vivo” (Cell Stem Cell, 2019).

Legend:
Assay in all cases: Dundee kinase panel
Format in all cases: biochemical
Settings in all cases: for remaining activity at 1 µM: read-out: residual activity
CK2 = molecular target: T1, CK2 (Homo sapiens, UniProt P68400)
T1 construct: lines 1-140) and Reaction Biology
Experimental: (§1) Compounds were screened at 1 μM. For key hits, pIC50 values were then determined by HTRF as above. […] Stability in mouse and human liver microsomes was determined by Cyprotex.

EPH-B4 = molecular target: T2, EPH-B4 (Homo sapiens, UniProt P54760)
T2 construct: lines 1-140) and Reaction Biology
T2 sequence (P54760 16-987): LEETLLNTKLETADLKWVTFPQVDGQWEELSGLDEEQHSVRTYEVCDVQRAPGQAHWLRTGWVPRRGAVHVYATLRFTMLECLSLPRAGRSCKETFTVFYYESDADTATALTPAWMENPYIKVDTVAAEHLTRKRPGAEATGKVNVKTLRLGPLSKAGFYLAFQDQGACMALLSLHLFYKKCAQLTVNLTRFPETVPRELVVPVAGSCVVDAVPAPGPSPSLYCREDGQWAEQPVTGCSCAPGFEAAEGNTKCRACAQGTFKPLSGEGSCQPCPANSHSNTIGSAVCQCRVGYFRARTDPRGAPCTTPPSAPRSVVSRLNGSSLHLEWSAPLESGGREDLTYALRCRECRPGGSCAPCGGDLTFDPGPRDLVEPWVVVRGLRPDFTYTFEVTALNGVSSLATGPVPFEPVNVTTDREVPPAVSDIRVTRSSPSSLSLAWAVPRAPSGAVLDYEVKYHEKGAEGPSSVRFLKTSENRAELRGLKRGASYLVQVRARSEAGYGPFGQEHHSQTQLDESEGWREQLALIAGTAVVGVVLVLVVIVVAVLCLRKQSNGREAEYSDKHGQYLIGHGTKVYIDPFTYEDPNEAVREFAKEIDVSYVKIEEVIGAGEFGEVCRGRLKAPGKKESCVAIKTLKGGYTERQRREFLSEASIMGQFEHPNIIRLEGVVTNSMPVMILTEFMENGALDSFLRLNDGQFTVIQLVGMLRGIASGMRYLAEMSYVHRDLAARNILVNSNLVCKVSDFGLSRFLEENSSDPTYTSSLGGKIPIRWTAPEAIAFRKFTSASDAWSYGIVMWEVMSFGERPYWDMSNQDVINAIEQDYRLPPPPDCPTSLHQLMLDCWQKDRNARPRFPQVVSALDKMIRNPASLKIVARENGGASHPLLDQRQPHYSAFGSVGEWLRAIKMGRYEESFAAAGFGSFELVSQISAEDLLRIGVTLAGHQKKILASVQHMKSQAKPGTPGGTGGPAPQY
Experimental: as §1

HER4 = molecular target: T3, HER4 (Homo sapiens, UniProt Q15303)
T3 construct: lines 1-140) and Reaction Biology
Experimental: as §1

HIPK3 = molecular target: T4, HIPK3 (Homo sapiens, UniProt Q9H422)
T4 construct: lines 1-140) and Reaction Biology
Experimental: as §1

IKKb = molecular target: T5, IKKb (Homo sapiens, UniProt O14920)
T5 construct: lines 1-140) and Reaction Biology
T5 sequence (O14920 1-756): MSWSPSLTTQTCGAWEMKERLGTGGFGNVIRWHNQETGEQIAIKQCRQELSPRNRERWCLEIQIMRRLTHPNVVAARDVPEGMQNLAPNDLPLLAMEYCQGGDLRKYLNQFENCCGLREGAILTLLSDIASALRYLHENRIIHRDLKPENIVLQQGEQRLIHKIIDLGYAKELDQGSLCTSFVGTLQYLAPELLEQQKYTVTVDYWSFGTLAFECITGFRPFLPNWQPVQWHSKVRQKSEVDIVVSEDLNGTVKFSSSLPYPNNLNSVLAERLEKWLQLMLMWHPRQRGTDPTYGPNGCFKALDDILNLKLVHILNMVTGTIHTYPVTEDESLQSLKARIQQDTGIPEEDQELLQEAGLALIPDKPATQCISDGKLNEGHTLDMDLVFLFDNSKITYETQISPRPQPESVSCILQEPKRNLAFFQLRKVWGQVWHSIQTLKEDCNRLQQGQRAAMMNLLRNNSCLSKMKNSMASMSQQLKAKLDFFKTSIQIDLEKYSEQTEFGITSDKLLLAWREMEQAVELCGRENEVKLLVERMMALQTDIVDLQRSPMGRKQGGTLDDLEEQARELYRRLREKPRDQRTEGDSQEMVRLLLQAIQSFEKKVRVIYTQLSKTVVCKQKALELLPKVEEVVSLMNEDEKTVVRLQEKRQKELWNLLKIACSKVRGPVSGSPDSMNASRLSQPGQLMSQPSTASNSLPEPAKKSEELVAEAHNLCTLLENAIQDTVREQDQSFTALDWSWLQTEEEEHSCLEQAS
Experimental: as §1

PAK2 = molecular target: T6, PAK2 (Homo sapiens, UniProt Q13177)
T6 construct: lines 1-140) and Reaction Biology
Experimental: as §1

PDK1 = molecular target: T7, PDK1 (Homo sapiens, UniProt O15530)
T7 construct: lines 1-140) and Reaction Biology
T7 sequence (O15530 1-556): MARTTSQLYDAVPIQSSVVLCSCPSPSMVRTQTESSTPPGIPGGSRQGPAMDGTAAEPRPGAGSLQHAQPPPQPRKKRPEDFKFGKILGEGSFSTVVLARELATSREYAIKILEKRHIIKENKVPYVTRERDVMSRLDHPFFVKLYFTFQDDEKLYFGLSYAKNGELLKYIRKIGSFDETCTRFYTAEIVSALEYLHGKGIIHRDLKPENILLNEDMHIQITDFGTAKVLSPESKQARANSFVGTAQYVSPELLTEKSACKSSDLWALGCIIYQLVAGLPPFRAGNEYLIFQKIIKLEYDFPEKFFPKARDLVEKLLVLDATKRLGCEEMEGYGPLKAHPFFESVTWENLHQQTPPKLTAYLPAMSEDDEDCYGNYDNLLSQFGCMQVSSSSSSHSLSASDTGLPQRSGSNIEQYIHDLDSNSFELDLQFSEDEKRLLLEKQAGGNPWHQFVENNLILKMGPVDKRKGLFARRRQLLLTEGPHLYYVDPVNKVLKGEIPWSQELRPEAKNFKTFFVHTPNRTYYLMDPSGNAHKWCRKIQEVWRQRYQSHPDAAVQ
Experimental: as §1

PKCγ = molecular target: T8, PKCγ (Homo sapiens, UniProt P05129)
T8 construct: lines 1-140) and Reaction Biology
Experimental: as §1

S6K1 = molecular target: T9, S6K1 (Homo sapiens, UniProt P23443)
T9 construct: lines 1-140) and Reaction Biology
Experimental: as §1

TTBK1 = molecular target: T10, TTBK1 (Homo sapiens, UniProt Q5TCY1)
T10 construct: lines 1-140) and Reaction Biology
Experimental: as §1

T4 sequence (Q9H422 whole entry): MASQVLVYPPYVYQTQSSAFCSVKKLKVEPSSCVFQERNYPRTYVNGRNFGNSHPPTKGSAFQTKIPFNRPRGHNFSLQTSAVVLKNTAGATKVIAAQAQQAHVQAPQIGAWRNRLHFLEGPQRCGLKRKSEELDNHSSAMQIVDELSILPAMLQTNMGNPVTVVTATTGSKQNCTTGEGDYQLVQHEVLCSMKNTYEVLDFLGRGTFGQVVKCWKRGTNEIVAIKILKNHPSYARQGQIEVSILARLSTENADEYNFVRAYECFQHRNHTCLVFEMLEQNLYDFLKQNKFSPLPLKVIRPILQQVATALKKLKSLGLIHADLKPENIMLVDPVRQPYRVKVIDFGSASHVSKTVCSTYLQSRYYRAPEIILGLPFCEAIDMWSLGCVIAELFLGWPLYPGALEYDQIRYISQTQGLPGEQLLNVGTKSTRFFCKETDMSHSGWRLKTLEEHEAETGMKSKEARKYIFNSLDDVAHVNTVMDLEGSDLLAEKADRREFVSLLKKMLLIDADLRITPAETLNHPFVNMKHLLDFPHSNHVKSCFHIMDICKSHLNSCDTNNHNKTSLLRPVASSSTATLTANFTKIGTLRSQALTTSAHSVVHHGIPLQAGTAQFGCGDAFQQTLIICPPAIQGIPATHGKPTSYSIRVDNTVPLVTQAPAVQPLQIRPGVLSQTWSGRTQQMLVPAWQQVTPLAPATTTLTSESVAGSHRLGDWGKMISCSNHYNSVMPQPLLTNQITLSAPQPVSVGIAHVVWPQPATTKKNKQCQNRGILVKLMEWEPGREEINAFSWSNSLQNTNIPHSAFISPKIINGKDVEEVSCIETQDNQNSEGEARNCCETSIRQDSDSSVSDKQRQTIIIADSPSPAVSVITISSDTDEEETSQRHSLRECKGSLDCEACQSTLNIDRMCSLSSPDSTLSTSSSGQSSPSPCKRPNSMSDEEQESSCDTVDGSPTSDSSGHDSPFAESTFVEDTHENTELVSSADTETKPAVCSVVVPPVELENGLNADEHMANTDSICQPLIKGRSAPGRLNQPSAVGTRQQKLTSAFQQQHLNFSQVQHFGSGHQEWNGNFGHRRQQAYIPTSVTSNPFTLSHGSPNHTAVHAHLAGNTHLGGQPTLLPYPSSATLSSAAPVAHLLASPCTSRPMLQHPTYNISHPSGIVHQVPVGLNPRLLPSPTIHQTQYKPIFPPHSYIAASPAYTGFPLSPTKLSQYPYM
T9 sequence (P23443 whole entry): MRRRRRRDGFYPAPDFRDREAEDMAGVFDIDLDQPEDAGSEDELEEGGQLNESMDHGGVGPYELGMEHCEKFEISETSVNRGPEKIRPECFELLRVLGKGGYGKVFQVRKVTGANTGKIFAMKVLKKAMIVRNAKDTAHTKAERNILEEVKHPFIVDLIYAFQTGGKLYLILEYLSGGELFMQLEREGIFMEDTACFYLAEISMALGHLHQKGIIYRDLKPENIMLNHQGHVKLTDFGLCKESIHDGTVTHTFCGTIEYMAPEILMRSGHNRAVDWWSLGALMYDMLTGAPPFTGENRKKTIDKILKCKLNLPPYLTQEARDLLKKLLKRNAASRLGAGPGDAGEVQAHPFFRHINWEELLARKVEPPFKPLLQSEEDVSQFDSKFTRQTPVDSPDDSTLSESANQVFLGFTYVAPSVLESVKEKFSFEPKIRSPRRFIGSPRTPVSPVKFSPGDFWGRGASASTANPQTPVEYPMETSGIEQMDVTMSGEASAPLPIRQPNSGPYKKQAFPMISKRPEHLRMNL
T6 sequence (Q13177 whole entry): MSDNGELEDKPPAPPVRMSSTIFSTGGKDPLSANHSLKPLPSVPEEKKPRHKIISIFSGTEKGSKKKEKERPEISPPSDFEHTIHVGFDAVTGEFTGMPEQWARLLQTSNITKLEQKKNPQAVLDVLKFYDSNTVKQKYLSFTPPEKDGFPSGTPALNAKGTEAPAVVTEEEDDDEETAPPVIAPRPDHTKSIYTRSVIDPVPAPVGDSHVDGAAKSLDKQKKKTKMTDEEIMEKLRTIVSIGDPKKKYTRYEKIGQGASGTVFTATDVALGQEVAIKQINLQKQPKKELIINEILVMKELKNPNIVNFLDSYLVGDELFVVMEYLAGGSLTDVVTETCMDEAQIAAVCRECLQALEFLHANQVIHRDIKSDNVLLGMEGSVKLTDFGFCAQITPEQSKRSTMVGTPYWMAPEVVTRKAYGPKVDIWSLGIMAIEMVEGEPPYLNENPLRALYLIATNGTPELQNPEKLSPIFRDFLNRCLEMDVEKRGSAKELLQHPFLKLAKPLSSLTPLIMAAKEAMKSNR
T3 sequence (Q15303 26-1308): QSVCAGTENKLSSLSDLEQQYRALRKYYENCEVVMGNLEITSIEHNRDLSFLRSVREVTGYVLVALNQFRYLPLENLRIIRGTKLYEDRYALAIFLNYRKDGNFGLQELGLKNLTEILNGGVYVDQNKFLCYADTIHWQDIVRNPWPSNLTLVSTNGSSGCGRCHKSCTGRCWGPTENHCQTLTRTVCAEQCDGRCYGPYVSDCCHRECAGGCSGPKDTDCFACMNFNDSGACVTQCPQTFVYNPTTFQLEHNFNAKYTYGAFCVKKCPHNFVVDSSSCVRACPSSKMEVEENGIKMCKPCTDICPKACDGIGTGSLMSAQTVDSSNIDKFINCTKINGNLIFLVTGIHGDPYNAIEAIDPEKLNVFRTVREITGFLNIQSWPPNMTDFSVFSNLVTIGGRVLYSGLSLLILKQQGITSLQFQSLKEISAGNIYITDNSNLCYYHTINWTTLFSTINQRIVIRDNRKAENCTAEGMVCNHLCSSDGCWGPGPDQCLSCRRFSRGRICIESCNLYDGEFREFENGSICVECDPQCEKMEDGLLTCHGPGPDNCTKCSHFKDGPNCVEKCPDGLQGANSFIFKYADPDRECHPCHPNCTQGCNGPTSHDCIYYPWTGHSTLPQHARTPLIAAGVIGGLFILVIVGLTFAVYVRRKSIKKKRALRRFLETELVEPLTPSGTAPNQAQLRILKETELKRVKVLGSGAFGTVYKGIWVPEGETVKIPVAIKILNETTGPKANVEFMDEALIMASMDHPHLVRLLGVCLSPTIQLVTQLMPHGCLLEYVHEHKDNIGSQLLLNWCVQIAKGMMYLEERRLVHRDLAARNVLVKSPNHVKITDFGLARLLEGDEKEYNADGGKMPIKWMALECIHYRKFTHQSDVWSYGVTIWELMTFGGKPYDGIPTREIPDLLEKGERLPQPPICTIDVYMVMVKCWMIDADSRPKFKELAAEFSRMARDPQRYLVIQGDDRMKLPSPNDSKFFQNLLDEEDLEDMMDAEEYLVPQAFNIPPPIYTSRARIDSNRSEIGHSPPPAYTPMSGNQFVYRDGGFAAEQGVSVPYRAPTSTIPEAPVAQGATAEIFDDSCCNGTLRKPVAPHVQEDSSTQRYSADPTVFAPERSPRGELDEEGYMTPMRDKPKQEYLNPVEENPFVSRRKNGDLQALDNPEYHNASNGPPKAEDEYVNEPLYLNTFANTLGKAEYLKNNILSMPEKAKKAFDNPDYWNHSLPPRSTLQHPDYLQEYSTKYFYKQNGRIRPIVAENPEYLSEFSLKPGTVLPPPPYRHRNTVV
T1 sequence (P68400 whole entry): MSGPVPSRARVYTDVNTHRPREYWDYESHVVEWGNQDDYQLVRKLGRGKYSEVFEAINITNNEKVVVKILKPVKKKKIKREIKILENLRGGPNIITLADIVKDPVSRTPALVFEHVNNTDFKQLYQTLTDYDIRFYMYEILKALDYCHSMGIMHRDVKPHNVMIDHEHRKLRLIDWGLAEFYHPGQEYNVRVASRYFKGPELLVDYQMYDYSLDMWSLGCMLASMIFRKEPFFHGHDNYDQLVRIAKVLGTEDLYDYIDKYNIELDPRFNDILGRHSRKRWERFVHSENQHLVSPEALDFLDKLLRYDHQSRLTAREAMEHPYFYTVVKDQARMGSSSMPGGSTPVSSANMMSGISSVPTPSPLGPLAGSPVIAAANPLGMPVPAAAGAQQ

Row | Compound | remaining activity at 1 µM (CK2) | remaining activity at 1 µM (EPH-B4) | remaining activity at 1 µM (HER4) | remaining activity at 1 µM (HIPK3) | remaining activity at 1 µM (IKKb) | remaining activity at 1 µM (PAK2) | remaining activity at 1 µM (PDK1) | remaining activity at 1 µM (PKCγ) | remaining activity at 1 µM (S6K1) | remaining activity at 1 µM (TTBK1) | residual activity (CK2; 1 μM) | residual activity (EPH-B4; 1 μM) | residual activity (HER4; 1 μM) | residual activity (HIPK3; 1 μM) | residual activity (IKKb; 1 μM) | residual activity (PAK2; 1 μM) | residual activity (PDK1; 1 μM) | residual activity (PKCγ; 1 μM) | residual activity (S6K1; 1 μM) | residual activity (TTBK1; 1 μM)
1 | COCCOc1ccc(-c2cn(-c3ccccc3)c3nc[nH]c(=O)c23)cc1 [DMX-5804, 5-[4-(2-methoxy-ethoxy)-phenyl]-7-phenyl-3,7-dihydro-pyrrolo[2,3-d]pyrimidin-4-one] | 104% | 100% | 106% | 103% | 107% | 93% | 89% | 94% | 121% | 113% | – | – | – | – | – | – | – | – | – | –
2 | Oc1ncnc2c1c(-c1ccccc1)cn2-c1ccccc1 [F1386-0303, 5,7-diphenyl-7H-pyrrolo[2,3-d]pyrimidin-4-ol] | 77% | 102% | 82% | 93% | 102% | 79% | 103% | 105% | 105% | 102% | – | – | – | – | – | – | – | – | – | –
3 | Nc1ncc(C(=O)NC2CN(C(=O)C3CC3)C2)c2ccc(-c3cccc(F)c3)nc12 [GNE-495] | – | – | – | – | – | – | – | – | – | – | 93% | 106% | 98% | 81% | 88% | 94% | 90% | 74% | 43% | 97%
4 | O=C1Nc2ccc(I)cc2/C1=C/c1cc(Br)c(O)c(Br)c1 [GW5074] | 72% | 94% | 68% | 25% | 73% | 29% | 22% | 100% | 87% | 62% | – | – | – | – | – | – | – | – | – | –
5 | O=C1Cc2c([nH]c3ccc(Br)cc23)-c2ccccc2N1 [Kenpaullone] | 90% | 85% | 85% | 87% | 103% | 96% | 64% | 105% | 97% | 88% | – | – | – | – | – | – | – | – | – | –
